Assay results: publication PMC6001238, “Iterative Chemical Engineering of Vancomycin Leads to Novel Vancomycin Analogs With a High in Vitro Therapeutic Index” (Frontiers in Microbiology, 2018)
Values after ≈ are worked out from the molar mass of the structure shown. Like-named read-outs stand apart in the source and are kept apart here.

Tests used:
33 clinical VRE isolates = assay: MIC against a set of 33 clinical VRE isolates (range, MIC50, TI); assay type: cell-based, Enterococcus faecalis
Method: (§1) The minimum inhibitory concentration (MIC) was determined using the broth microdilution method according to the antimicrobial susceptibility testing standards of the clinical and laboratory standards institute ([Clinical and Laboratory Standards Institute [CLSI], 2012]). Ultrapure water and non-inoculated broth were used as controls. In one case, a final concentration of 10 μM vancomycin was included with the vancomycin analog or control antibiotic.

[1] = system: L1210, CEM and HeLa cell lines; assay: Cytostatic activity, average or summary over L1210, CEM and HeLa; assay type: cell-based
Method in brief: (§2)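 Readout: Coulter cell number after drug exposure at 37°C. Durations differ by line (L1210 2 days; CEM 3 days; HeLa 4 days). Stock suspension 300,000–500,000 cells/mL, diluted by mixing with compound. Endpoint: IC50 vs negative control.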

VE 82 (VanC1) = assay: MIC, VanC1-type VRE strain VE 82; assay type: cell-based, Enterococcus gallinarum; conditions: Enterococcus gallinarum; VE 82, VanC1; read-out: MIC
Method: as §1

[2] = system: human cervix carcinoma (HeLa) cells; assay: Cytostatic activity, HeLa cell proliferation; assay type: cell-based; conditions: Homo sapiens, HeLa, 96 h; mean ± SD of three experiments; highest concentration tested 250 µM; 4 days; read-out: Toxicity (IC50) HeLa
Method in brief: as §2

MRSA KS2 = assay: MIC, broth microdilution, MRSA KS2; assay type: cell-based, Staphylococcus aureus
Method in brief: (§3)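 Broth microdilution per CLSI; controls = ultrapure water, non-inoculated broth. One set: + vancomycin 10 μM final alongside test analogue/control drug.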

VE 148 (VanB) = assay: MIC, VanB-type VRE strain VE 148; assay type: cell-based, Enterococcus; conditions: Enterococcus; VE 148, VanB; read-out: MIC
Method: as §1

S. aureus VISA/HIP5827 = assay: MIC, broth microdilution, vancomycin-intermediate S. aureus VISA HIP5827; assay type: cell-based, Staphylococcus aureus
Method in brief: as §3

MRSA = assay: Minimum bactericidal concentration against MRSA; assay type: cell-based, Staphylococcus aureus
Method: Plates were incubated overnight at 37°C and colony growth was inspected.

[3] = system: human T-lymphocyte (CEM) cells; assay: Cytostatic activity, CEM cell proliferation; assay type: cell-based; conditions: Homo sapiens, CCRF-CEM, 72 h; mean ± SD of three experiments; highest concentration tested 250 µM; 3 days; read-out: Toxicity (IC50) CEM
Method in brief: as §2

E. faecalis VRE 29 = assay: MIC, broth microdilution, vancomycin-resistant E. faecalis VRE 29 (VanA); assay type: cell-based, Enterococcus faecalis
Method in brief: as §3

VE 150 (VanB) = assay: MIC, VanB-type VRE strain VE 150; assay type: cell-based, Enterococcus; conditions: Enterococcus; VE 150, VanB; read-out: MIC
Method: as §1

E. faecalis VRE 6 = assay: MIC, broth microdilution, vancomycin-resistant E. faecalis VRE 6 (VanA); assay type: cell-based, Enterococcus faecalis
Method in brief: as §3

[4] = system: Murine leukemia (L1210) cells; assay: Cytostatic activity, L1210 cell proliferation; assay type: cell-based; conditions: Mus musculus, L1210, 48 h; mean ± SD of three experiments; highest concentration tested 250 µM; 2 days; read-out: Toxicity (IC50) L1210
Method in brief: as §2

VE 157 (VanB) = assay: MIC, VanB-type VRE strain VE 157; assay type: cell-based, Enterococcus; conditions: Enterococcus; VE 157, VanB; read-out: MIC
Method: as §1

E. faecalis VRE 37 = assay: MIC, broth microdilution, vancomycin-resistant E. faecalis VRE 37 (VanA); assay type: cell-based, Enterococcus faecalis
Method in brief: as §3

VE 152 (VanB) = assay: MIC, VanB-type VRE strain VE 152; assay type: cell-based, Enterococcus; conditions: Enterococcus; VE 152, VanB; read-out: MIC
Method: as §1

[5] = system: S. aureus VSSA (ATCC 6538); assay: MIC, broth microdilution, vancomycin-sensitive S. aureus (VSSA/MSSA, ATCC 6538); assay type: cell-based, Staphylococcus aureus
Method in brief: as §3

VE 149 (VanB) = assay: MIC, VanB-type VRE strain VE 149; assay type: cell-based, Enterococcus; conditions: Enterococcus; VE 149, VanB; read-out: MIC
Method: as §1

MRSA KS89 = assay: MIC, broth microdilution, MRSA KS89; assay type: cell-based, Staphylococcus aureus
Method in brief: as §3

E. faecalis VRE 53 = assay: MIC, broth microdilution, vancomycin-resistant E. faecalis VRE 53 (VanA); assay type: cell-based, Enterococcus faecalis
Method in brief: as §3

MRSA KS1 = assay: MIC, broth microdilution, MRSA KS1; assay type: cell-based, Staphylococcus aureus
Method in brief: as §3

MRSA KS6 = assay: MIC, broth microdilution, MRSA KS6; assay type: cell-based, Staphylococcus aureus
Method in brief: as §3

[6] = system: 24 clinical MRSA isolates; assay: MIC against a set of 24 clinical MRSA isolates (range, MIC50, TI); assay type: cell-based, Staphylococcus aureus
Method: as §1

S. aureus VRSA = assay: MIC, broth microdilution, vancomycin-resistant S. aureus (VRSA); assay type: cell-based, Staphylococcus aureus
Method in brief: as §3

E. faecalis VSE 1 = assay: MIC, broth microdilution, vancomycin-sensitive E. faecalis (VSE 1); assay type: cell-based, Enterococcus faecalis
Method in brief: as §3

Q: `CN(C)c1cc(NC(=O)CNC(C)(C)C)c(O)c2c1C[C@H]1C[C@H]3[C@H](N(C)C)C(O)=C(C(N)=O)C(=O)[C@@]3(O)C(O)=C1C2=O` [Tigecycline, reference compound] was tested. Which “MIC Range” value (33 clinical VRE isolates; 33 clinical VRE isolates) did it give?
A: ≤0.02 to 0.78 µM

Q: And the MIC50 (33 clinical VRE isolates; Enterococcus, median MIC, 33 clinical VRE isolates, read-out: MIC50)?
A: 0.2 µM (≈ 0.117 µg/mL)

Q: What about the “TI (IC50/MIC50)” value (33 clinical VRE isolates; in vitro therapeutic index, VRE) of the same compound?
A: 70

Q: And the IC50 ([1]; average IC50 used for TI in Table S5, >250 entered as 250, read-out: IC50)?
A: 14 µM

Q: What about the IC50 ([1]; average of L1210, CEM and HeLa, read-out: Toxicity (IC50) Average) of the same compound?
A: 14 µM

Q: What about the MIC (VE 82 (VanC1)) of the same compound?
A: 0.78 µM (≈ 0.457 µg/mL)

Q: What about the IC50 [2] of the same compound?
A: 24 ± 17 µM

Q: And the “MIC-fold improvement vs. vancomycin” value (MRSA KS2; MRSA KS2, ratio of MIC of vancomycin and MIC of analogue)?
A: 0.5

Q: What about the MIC (MRSA KS2; Staphylococcus aureus MRSA KS2, read-out: MIC) of the same compound?
A: 1.56 µM (≈ 0.914 µg/mL)

Q: And the MIC (VE 148 (VanB))?
A: 3.13 µM (≈ 1.83 µg/mL)

Q: And the MIC (S. aureus VISA/HIP5827; Staphylococcus aureus VISA/HIP5827, read-out: MIC)?
A: 3.13 µM (≈ 1.83 µg/mL)

Q: And the “MIC-fold improvement vs. vancomycin” value (S. aureus VISA/HIP5827; VISA/HIP5827, ratio of MIC of vancomycin and MIC of analogue)?
A: 2

Q: What about the “MBC relative to MIC” value (MRSA) of the same compound?
A: more than four times higher than the corresponding MIC

Q: What about the IC50 [3] of the same compound?
A: 7.1 ± 2.1 µM

Q: What about the MIC (E. faecalis VRE 29; Enterococcus faecalis VRE 29 (vancomycin-resistant), read-out: MIC) of the same compound?
A: 3.13 µM (≈ 1.83 µg/mL)

Q: What about the “MIC-fold improvement vs. vancomycin” value (E. faecalis VRE 29; VRE 29, ratio of MIC of vancomycin and MIC of analogue) of the same compound?
A: 128

Q: What about the MIC (VE 150 (VanB)) of the same compound?
A: 1.56 µM (≈ 0.914 µg/mL)

Q: What about the MIC (E. faecalis VRE 6; Enterococcus faecalis VRE 6 (vancomycin-resistant), read-out: MIC) of the same compound?
A: 3.13 µM (≈ 1.83 µg/mL)

Q: And the “MIC-fold improvement vs. vancomycin” value (E. faecalis VRE 6; VRE 6, ratio of MIC of vancomycin and MIC of analogue)?
A: 64

Q: And the IC50 [4]?
A: 9.4 ± 3.2 µM

Q: And the MIC (VE 157 (VanB))?
A: 1.56 µM (≈ 0.914 µg/mL)

Q: What about the MIC (E. faecalis VRE 37; Enterococcus faecalis VRE 37 (vancomycin-resistant), read-out: MIC) of the same compound?
A: 3.13 µM (≈ 1.83 µg/mL)

Q: And the “MIC-fold improvement vs. vancomycin” value (E. faecalis VRE 37; VRE 37, ratio of MIC of vancomycin and MIC of analogue)?
A: 128

Q: What about the MIC (VE 152 (VanB)) of the same compound?
A: 1.56 µM (≈ 0.914 µg/mL)

Q: What about the MIC ([5]; ATCC6538, Staphylococcus aureus VSSA, read-out: MIC) of the same compound?
A: 3.13 µM (≈ 1.83 µg/mL)

Q: What about the “MIC-fold improvement vs. vancomycin” value ([5]; VSSA, ratio of MIC of vancomycin and MIC of analogue) of the same compound?
A: 0.3

Q: And the MIC (VE 149 (VanB))?
A: 1.56 µM (≈ 0.914 µg/mL)

Q: And the “MIC-fold improvement vs. vancomycin” value (MRSA KS89; MRSA KS8 (head; KS89 in title), ratio of MIC of vancomycin and MIC of analogue)?
A: 0.5

Q: What about the MIC (MRSA KS89; Staphylococcus aureus MRSA KS8 (head; KS89 in title), read-out: MIC) of the same compound?
A: 1.56 µM (≈ 0.914 µg/mL)

Q: And the MIC (E. faecalis VRE 53; Enterococcus faecalis VRE 53 (vancomycin-resistant), read-out: MIC)?
A: 3.13 µM (≈ 1.83 µg/mL)

Q: What about the “MIC-fold improvement vs. vancomycin” value (E. faecalis VRE 53; VRE 53, ratio of MIC of vancomycin and MIC of analogue) of the same compound?
A: 128

Q: And the “MIC-fold improvement vs. vancomycin” value (MRSA KS1; MRSA KS1, ratio of MIC of vancomycin and MIC of analogue)?
A: 0.5

Q: And the MIC (MRSA KS1; Staphylococcus aureus MRSA KS1, read-out: MIC)?
A: 1.56 µM (≈ 0.914 µg/mL)

Q: And the “MIC-fold improvement vs. vancomycin” value (MRSA KS6; MRSA KS6, ratio of MIC of vancomycin and MIC of analogue)?
A: 0.5

Q: What about the MIC (MRSA KS6; Staphylococcus aureus MRSA KS6, read-out: MIC) of the same compound?
A: 1.56 µM (≈ 0.914 µg/mL)

Q: What about the “MIC Range” value ([6]; 24 clinical MRSA isolates) of the same compound?
A: 0.78 to 6.25 µM

Q: What about the MIC50 ([6]; Staphylococcus aureus, median MIC, 24 clinical MRSA isolates, read-out: MIC50) of the same compound?
A: 1.56 µM (≈ 0.914 µg/mL)

Q: And the “TI (IC50/MIC50)” value ([6]; in vitro therapeutic index, MRSA)?
A: 9

Q: What about the MIC (S. aureus VRSA; Staphylococcus aureus VRSA, read-out: MIC) of the same compound?
A: 3.13 µM (≈ 1.83 µg/mL)

Q: What about the “MIC-fold improvement vs. vancomycin” value (S. aureus VRSA; VRSA, ratio of MIC of vancomycin and MIC of analogue) of the same compound?
A: 32

Q: And the MIC (E. faecalis VSE 1; VSE1, Enterococcus faecalis VSE 1 (vancomycin-sensitive), read-out: MIC)?
A: 3.13 µM (≈ 1.83 µg/mL)

Q: What about the “MIC-fold improvement vs. vancomycin” value (E. faecalis VSE 1; VSE 1, ratio of MIC of vancomycin and MIC of analogue) of the same compound?
A: 0.5
